Like-named read-outs stand apart in the source and are kept apart here.
How the values were obtained:
Assay type in all cases: cell-based
Parameters in all cases: expressed in transfected cells; host or cells: HEK293 (stably transfected)
[1] = target: T1, hOCT2 (Homo sapiens, UniProt O15244); assay: Inhibition of hOCT2-mediated 14C-metformin uptake in transfected HEK293 cells
T1 sequence (O15244 1-555): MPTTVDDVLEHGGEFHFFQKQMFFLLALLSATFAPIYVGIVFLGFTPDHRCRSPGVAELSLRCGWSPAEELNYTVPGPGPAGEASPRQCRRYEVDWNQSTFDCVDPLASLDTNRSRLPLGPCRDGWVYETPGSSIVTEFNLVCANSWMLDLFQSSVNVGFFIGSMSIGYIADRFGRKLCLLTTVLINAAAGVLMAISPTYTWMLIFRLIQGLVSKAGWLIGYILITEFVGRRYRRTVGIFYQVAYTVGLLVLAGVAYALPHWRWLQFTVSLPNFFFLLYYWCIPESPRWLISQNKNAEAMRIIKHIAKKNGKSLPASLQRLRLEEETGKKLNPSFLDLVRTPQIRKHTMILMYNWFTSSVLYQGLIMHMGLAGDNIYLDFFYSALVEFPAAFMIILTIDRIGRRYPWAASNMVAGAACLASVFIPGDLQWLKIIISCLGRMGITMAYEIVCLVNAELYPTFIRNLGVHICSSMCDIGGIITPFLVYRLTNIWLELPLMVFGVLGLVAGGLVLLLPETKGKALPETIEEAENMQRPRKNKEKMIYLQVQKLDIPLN
Protocol: (§1) The uptake assays were performed as previously described in 24-well plates. […] After incubation, the uptake was stopped by aspirating the reaction mixture and washing the cells three times with 0.4 mL ice-cold PBS buffer. Cells were then solubilized with 0.6 mL of 1 N NaOH, overnight. The whole content of each well (0.6 mL) was transferred to a scintillation vial (Perkin Elmer). The radio-labelled amount was determined by liquid scintillation counting.
(§2) All inhibition experiments were conducted on at least two separate days in triplicate.
(§3) For screening experiments, cis-inhibition was carried out in duplicate by measuring the uptake of the labeled probe substrate in the absence and presence of 10 µM or 100 µM of the respective pesticide or drug. […] Inhibitory effects in percent were calculated from net-uptake. […]

[2] = target: T2, mOct2 (Mus musculus, UniProt O70577); assay: Inhibition of mOct2-mediated 14C-metformin uptake in transfected HEK293 cells
T2 sequence (O70577 1-553): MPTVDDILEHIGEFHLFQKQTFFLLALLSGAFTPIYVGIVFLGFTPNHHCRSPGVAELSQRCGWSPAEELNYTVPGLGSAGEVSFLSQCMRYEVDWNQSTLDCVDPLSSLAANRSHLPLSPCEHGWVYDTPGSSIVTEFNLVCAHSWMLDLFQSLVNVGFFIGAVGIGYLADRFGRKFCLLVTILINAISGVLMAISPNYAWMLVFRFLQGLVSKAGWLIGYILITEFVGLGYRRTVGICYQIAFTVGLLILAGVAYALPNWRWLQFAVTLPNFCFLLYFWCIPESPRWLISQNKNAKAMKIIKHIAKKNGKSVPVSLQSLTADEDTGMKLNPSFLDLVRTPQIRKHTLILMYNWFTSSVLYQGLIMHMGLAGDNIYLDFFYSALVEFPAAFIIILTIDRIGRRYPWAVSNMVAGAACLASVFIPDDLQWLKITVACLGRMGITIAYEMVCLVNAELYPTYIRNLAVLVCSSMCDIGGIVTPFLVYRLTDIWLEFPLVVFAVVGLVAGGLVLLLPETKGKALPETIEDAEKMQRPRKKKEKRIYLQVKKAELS
Protocol: as §1, §2, §3

[3] = target: T1, hOCT2; assay: Inhibition of hOCT2-mediated 3H-MPP uptake in transfected HEK293 cells
Protocol: (§4) With cDNA of hOCT2 (GeneBank: accession number: NM_003058.3) or mOct2 (NM_013667.2), stably overexpressing HEK293 cells were used for the experiments and empty vector-transfected HEK cells were used as control-HEK cells.
(§5) The uptake assays were performed as previously described in 24-well plates. Therefore, culture medium was aspirated, and each well was rinsed three times with 0.5 mL incubation buffer (HBSS supplemented with 20 mM HEPES, pH 7.4) and then incubated in 200 µL dosing solution containing ^3H-MPP or ^14C-metformin and the test compound. After incubation, the uptake was stopped by aspirating the reaction mixture and washing the cells three times with 0.4 mL ice-cold PBS buffer. Cells were then solubilized with 0.6 mL of 1 N NaOH, overnight. The whole content of each well (0.6 mL) was transferred to a scintillation vial (Perkin Elmer). The radio-labelled amount was determined by liquid scintillation counting.
(§6) […]. All inhibition experiments were conducted on at least two separate days in triplicate.
(§7) The Km and Vmax values were obtained using SigmaPlot version 13 by fitting the Michaelis–Menten equation V = Vmax*[S]/(Km + [S]), where V refers to the rate of substrate transport, Vmax refers to the maximum rate of substrate transport, [S] refers to the concentration of substrate, and Km is defined as the concentration of substrate at the half-maximal transport rate.

[4] = target: T2, mOct2; assay: Inhibition of mOct2-mediated 3H-MPP uptake in transfected HEK293 cells
Protocol: as §4, §5, §6, §7

[5] = 10 µM test compound; 1 µM [14C]metformin, 2 min, HEK293; negative = stimulation
[6] = HEK293; read-out: Inhibitory Effects (%) mOct2 10 µM Mean
[7] = HEK293; read-out: Inhibitory Effects (%) mOct2 100 µM Mean
[8] = HEK293, read-out: Inhibitory Effects (%) hOCT2 10 µM Mean
[9] = HEK293, read-out: Inhibitory Effects (%) hOCT2 100 µM Mean
[10] = HEK293, read-out: Inhibitory Effects (%) mOct2 10 µM Mean
[11] = HEK293, read-out: Inhibitory Effects (%) mOct2 100 µM Mean
[12] = HEK293, 10 µM test compound; 1 µM [14C]metformin, 2 min, HEK293; negative = stimulation; read-out: Inhibitory Effects (%) hOCT2 10 µM Mean
[13] = HEK293, 100 µM test compound; 1 µM [14C]metformin, 2 min, HEK293; negative = stimulation; read-out: Inhibitory Effects (%) hOCT2 100 µM Mean
[14] = HEK293, 10 µM test compound; 1 µM [14C]metformin, 2 min, HEK293; negative = stimulation; read-out: Inhibitory Effects (%) mOct2 10 µM Mean
[15] = HEK293, 100 µM test compound; 1 µM [14C]metformin, 2 min, HEK293; negative = stimulation; read-out: Inhibitory Effects (%) mOct2 100 µM Mean

SMILES	inhibition at 10 µM [1, 8]	inhibition at 100 µM [1, 9]	inhibition at 10 µM [2, 10]	inhibition at 100 µM [2, 11]	inhibition at 10 µM [1, 12]	inhibition at 100 µM [1, 13]	further results
CCCOC(=O)NCCCN(C)C [Propamocarb]	–	–	–	–	–	–	Inhibitory Effects (%) hOCT2 10 µM Mean [1, 5]: negligible; inhibition at 10 µM ([1]; HEK293; read-out: Inhibitory Effects (%) hOCT2 10 µM Mean): 1%; inhibition at 100 µM ([1]; HEK293; read-out: Inhibitory Effects (%) hOCT2 100 µM Mean): 55%; Inhibitory Effects (%) mOct2 10 µM Mean [2, 5]: negligible; inhibition at 10 µM [2, 6]: -9%; inhibition at 100 µM [2, 7]: 48%
O=[N+]([O-])NC1=NCCN1Cc1ccc(Cl)nc1 [Imidacloprid]	-74%	-43%	-52%	-29%	–	–	–
O=C(O)CNCP(=O)(O)O [Glyphosat]	-24%	-48%	-13%	-31%	–	–	–
C=CCOC(Cn1ccnc1)c1ccc(Cl)cc1Cl (stereo not shown) [Imazalil]	52%	93%	83%	97%	–	–	IC50 [1]: 4.7 µM; IC50 [3]: 51 ± 16 µM; Fold higher IC50 for hOCT2 than for mOct2 ([3]; MPP as substrate): 2 fold; IC50 [2]: 0.58 µM; Fold higher inhibitory potency to mouse than to human OCT2 (IC50 ratio) ([2]; metformin as substrate): 8 fold; IC50 [4]: 23 ± 6 µM
CCCCc1oc2ccccc2c1C(=O)c1cc(I)c(OCCN(CC)CC)c(I)c1 [Amiodarone]	–	–	–	–	-10%	-27%	inhibition at 10 µM [2, 14]: -7%; inhibition at 100 µM [2, 15]: 4%
CN/C(=N/CCSCc1nc[nH]c1C)NC#N [Cimetidine]	–	–	–	–	-50%	-17%	inhibition at 10 µM [2, 14]: -42%; inhibition at 100 µM [2, 15]: 24%
COC(=O)[C@H]1[C@H]2C[C@@H]3c4[nH]c5cc(OC)ccc5c4CCN3C[C@H]2C[C@@H](OC(=O)c2cc(OC)c(OC)c(OC)c2)[C@@H]1OC [Reserpine]	–	–	–	–	-13%	-27%	inhibition at 10 µM [2, 6]: -27%; inhibition at 100 µM [2, 7]: -19%
COc1ccc(CCN(C)CCCC(C#N)(c2ccc(OC)c(OC)c2)C(C)C)cc1OC (stereo not shown) [Verapamil]	-8%	44%	23%	73%	–	–	–

From publication PMC9780857 (International Journal of Molecular Sciences, 2022)
